Data set [1] in a line: Phase I microsomal stability, human liver microsomes. Type of data set: in vitro ADME. On the procedure: (§1) The metabolic stability of ART631 was assessed in human and mouse plasma and liver microsomes (LM). For phase I microsomal stability assays, analogs (10 µM in <1% acetonitrile) were incubated in PBS containing liver microsomes, with or without cofactors ([22]). Microsomal controls (without cofactors) were used to determine non-enzymatic degradation. All experiments were incubated at 37°C for 1h and performed in duplicate. Reactions were stopped with acetonitrile and analyzed as described below.
(§2) ART631 was extracted from 25 µL plasma or microsomal solutions with 100 µL acetonitrile containing artemisinin (i.e. the natural product) as internal standard. […] Mobile phase A was ammonium acetate (2mM) containing 0.1% formic acid, and mobile phase B was acetonitrile containing 0.1% formic acid. The gradient started with mobile phase B and was held at 40% for 0.5 minutes with a flow rate of 0.4 mL/min, then increased to 100% over 1.5 minutes and held for 2.0 minutes, and finally returned back to 40% mobile phase B and allowed to equilibrate for 2.0 minutes. An AB Sciex 5500 triple quadrupole mass spectrometer operated in positive electrospray ionization mode was used for the detection of ART631. For stability studies, the ratio of ART631 to the internal standard, artemisinin, was assessed. Calibration curves for ART631 were computed using the ratio of the peak area to that of the internal standard by using a quadratic equation with a 1/x^2 weighting function over the range of 8-1585 nM with dilutions of up to 1:10 (v/v).
On the technique in general: Liver microsomes are a subcellular fraction often used to study metabolism.

The next data set concerns DDIT3. The data set can be described thus: qRT-PCR for DDIT3 mRNA. Type of data set: cell-based, human. The settings on record: MOLM14, 18h, ART631 200 nM, ART838 200 nM, AS 10 uM, similar results in MV4;11 and ML2. On the procedure: Cells were pre-treated with […] ROS detection reagent 5-(and 6-)-chloromethyl-2’,7’-dichlorodihydrofluorescein diacetate (CM-H2DCFDA, Life Technologies) for 30 min, followed by the iron chelator deferoxamine mesylate (DFO; 11 mM) for 60 min. Cells were then treated with ART631 (200 nM) or DMSO control for 18h, with subsequent analysis by flow cytometry. Western blotting and quantitative reverse transcription PCR (qRT-PCR) to assess for molecular markers of ROS-mediated apoptosis were performed as previously described ([20]).
Figure 4 ART631 elevated ROS and CHOP levels and reduced MCL1 expression in MOLM14 AML cells. (A) MOLM14 AML cells were pre-treated with ROS detection reagent CM-H2DCFDA ([…]) for 30 min, pre-treated with deferoxamine mesylate (DFO; 11 mM) for 60 min, and then treated with ART631 (200 nM) or DMSO control for 18h. They were then analyzed by flow cytometry. Graph represents %CM-H2DCFDA fluorescence compared to vehicle (DMSO) control treated cells. Error bars represent SD from 3 independent experiments. (B) MOLM14 AML cells were treated for 18h with vehicle, AS (10 uM), ART838 (200 nM), ART631 (200 nM), cytarabine (AraC; 150 nM), or SOR (5 uM). Protein was isolated and western blotted for MCL1, BCL2, CHOP, and β-actin. (C) MOLM14 cells were treated as in (B) for 18h, total RNA isolated, cDNA synthesized, and SYBR Green qRT-PCR performed in triplicates. Ct values were normalized to housekeeping gene GAPDH and fold change shown relative to vehicle (DMSO) control. Error bars represent SD from 3 independent experiments done in triplicate.
In general terms: Real-time PCR tracks product formation cycle by cycle.

A further data set deals with MV4;11. The data set can be described thus: alamarBlue growth inhibition, MV4;11. The format is cell-based. Particulars: Homo sapiens, MV4;11, 48h, mean of 2 independent assays ± SD. On the procedure: Cytotoxicity was assessed using alamarBlue assays (Life Technologies, Grand Island, NY) following manufacturer’s guidelines. Cell death was verified by Annexin V/7-aminoactinomycin D (7AAD) staining (BioLegend, San Diego, CA) per manufacturer’s guidelines.

Data set [2] is described as follows: Maximum tolerated dose in NRG mice. Type of data set: in vivo. On the procedure: Mice were dosed orally with ART631 at empirically determined maximally tolerated doses (MTDs) of 75 mg/kg ART631 as a single dose alone or 15 mg/kg as a multiple dose regimen (once daily x5), either alone or in combination with SOR (30 mg/kg/d) and VEN (150 mg/kg/d), for side-by-side comparison to the ART838, SOR and VEN combination evaluated previously ([20]). ART631, SOR, and VEN were mixed in vehicle and given as a single administration. Mice (n = 3/time point) were euthanized at 0.5, 1, 1.5, 2, 3, 4, 6, 8 and 12 h after dosing. ART631 was quantified in plasma as described below. Pharmacokinetic parameters were calculated from mean concentration-time data using non-compartmental methods in Phoenix WinNonlin version 8.3 (Certara, Princeton, NJ). The maximum plasma concentration (Cmax) and time to Cmax (Tmax) were the observed values. The AUClast was calculated using the log-linear trapezoidal method. AUC was extrapolated to infinity (AUCINF) by dividing the last quantifiable concentration by the terminal disposition rate constant (λz). The λz was determined from at least 3 points on the slope of the terminal phase of the concentration-time profile. The terminal half-life (T1/2) was determined by dividing 0.693 by λz. Apparent clearance (Cl/F) was calculated by dividing the dose administered by AUCINF. Apparent volume of distribution (V/F) was calculated by dividing Cl/F by λz. If the percent AUC extrapolated was >20% or the r^2 of λz was <0.85, the AUCINF, Cl/F, T1/2 and V/F were not reported.
In pilot experiments, the MTD of ART631 was determined, in NRG (host strain for our AML xenograft models) mice, to be 75 mg/kg PO (gavage) for a single dose, or 15 mg/kg/d PO x5d every 14 days. When ART631 was combined with 150 mg/kg/d VEN and/or 30 mg/kg/d SOR, as was done previously with ART838 ([20]), ART631 was tolerated at the multiple dose MTD, and no further dose adjustments were made. The PK of ART631 was assessed at the MTD.

Data set [3] in a line: Stability in human plasma (EDTA). The settings on record: 10 µM, 37°C, 1h. Type of data set: in vitro ADME. On the procedure:
as §1
as §2, with “Calibration curves for ART631 were computed using the ratio of the peak area to that of the internal standard by using a quadratic equation with a 1/x^2 weighting function over the range of 8-1585 nM with dilutions of up to 1:10 (v/v).” left out

By IC50 is commonly meant the concentration that gives 50% inhibition. Read a low IC50 as greater potency. Broadly, the MTD is the largest dose that counted as tolerated.

Turning to `C=CCO/N=C(/C[C@H]1O[C@@H]2O[C@@]3(C)CC[C@H]4[C@H](C)CC[C@@H]([C@H]1C)[C@@]24OO3)[C@H]1O[C@@H]2O[C@@]3(C)CC[C@H]4[C@H](C)CC[C@@H]([C@H]1C)[C@@]24OO3` [ART631], the “percentage remaining, Phase I Metabolism HLM NADPH(+)” value in data set [1] (10 µM, 37°C, 1h, with cofactors) is on record as 60%. The “percentage remaining, Phase I Metabolism HLM NADPH(-)” value in data set [1] (10 µM, 37°C, 1h, without cofactors) amounted to 86%. For the same molecule, the “degradation in human liver microsomes with co-factors” value in data set [1] (NADPH-dependent phase I metabolism) is listed as ~ 30%. Besides, in the data set with DDIT3, the “DDIT3 mRNA” value was “increased”. For the same molecule, in the data set on MV4;11, the 50% inhibitory concentration (IC50) stood at 27 ± 2 nM. Also, the “tolerability when combined with VEN and/or SOR” value in data set [2] (ART631 at multiple dose MTD with 150 mg/kg/d VEN and/or 30 mg/kg/d SOR) is “tolerated”. Also, the MTD in data set [2] (mouse, in vivo, NRG mice, PO (gavage), single dose) was 75 mg/kg. The maximum tolerated dose (MTD) at 5 d in data set [2] (mouse, in vivo, NRG mice, PO x5d every 14 days, read-out: MTD, multiple dose) was 15 mg/kg/day. Besides, the “percentage remaining, Plasma (EDTA) Human” value in data set [3] is on record as 60%.

Source of the values: publication PMC8811960, “A Novel 2-Carbon-Linked Dimeric Artemisinin With Potent Antileukemic Activity and Favorable Pharmacology” (Frontiers in Oncology, 2022).
